Data from patent US20170042880A1, “Method of Treating Lung Adenocarcinoma” (Exelixis, Inc., priority 2014, published 2017).
Read-outs that look alike come from different tables or passages of the source.

Columns and labels:
[1] = test system: NCI-H2228 cells (EML4-ALK fusion); assay: BrdU ELISA proliferation of NCI-H2228 cells; assay type: cell-based; conditions: Homo sapiens, BrdU incorporation
Experimental: (§1) Both HCC-78 and NCI-H2228 cells were received from DSMZ and ATCC respectively as a frozen biological sample thawed into a T-75 flask (Nunc) and grown until 80 to 90% confluent for adherent cells or until cells were at a density of 1-2×10^6 cells/mL for suspension cells.
(§2) Cells were grown at 37° C. in a humidified, 5% CO2 atmosphere for 16 hours. […] Cells were assayed for proliferation by monitoring BrdU incorporation. […] After BrdU labelling, cells were fixed with FixDenat solution. anti-BrdU peroxidase (POD) conjugate was added and plates were washed with 1×PBS. Substrate solution was added, and luminescence measurements were taken on a Victor Wallac V plate reader (Perkin Elmer).

[2] = test system: HCC-78 NSCLC cells (SLC34A2-ROS1 fusion); assay: ROS1-dependent proliferation of HCC-78 NSCLC cells (BrdU ELISA); assay type: cell-based; conditions: Homo sapiens
Experimental: as §1, §2

[3] = target: T1, SLC34A2-ROS1 fusion (Homo sapiens, UniProt P08922); assay: Inhibition of ROS1 phosphorylation in HCC-78 cells (western blot); assay type: cell-based; conditions: single escalating doses, 3 hour incubation, versus Crizotinib
T1 construct: a portion of the ROS1 polypeptide comprising the kinase domain of the ROS1 protein; N-terminal portion of SLC34A2 (natural fusion partner, O95436); host or cells: HCC-78 (human NSCLC adenocarcinoma); the other entry of the earlier key: SLC34A2 (O95436, Sodium-dependent phosphate transport protein 2B)
Experimental: HCC-78 cells, a human lung NSCLC adenocarcinoma cell line (DSMZ, ACC 563) harboring the activating SLC34A2-ROS1 fusion and phosphor-Met, were seeded at 3×10^5 cells/well onto 6-well plates (Nunclon, 152795), RPMI 1640 (ATCC, 30-2001) containing 10% FBS (heat-inactivated, Cellgro) and 1% penicillin-streptomycin (Cellgro). DMSO or serial dilutions of compound 1 in fresh medium with 10% FBS in a final concentration of 0.3% DMSO (vehicle) were added to the cells and incubated for 3 hour. After treatment, cells were collected and washed with cold PBS and immediately lysed with 0.15 mL of cold lysis buffer (50 mM Tris HCl, pH 8.0, 150 mM NaCl, 1% NP 40, 0.1% SDS, 0.5% sodium deoxycholate, 1 mM EDTA, 50 mM NaF, 1 mM sodium pyrophosphate, 1 mM Na3VO4, 2 mM PMSF, 10 μg/mL aprotinin, 5 μg/mL leupeptin and 5 pμg/mL pepstatin A). Lysates were collected, and protein concentrations were measured by the BCA method (Pierce). […] The membranes were scanned using the Odyssey Scanner (Li-Cor) and the signal intensity of each band was quantified using ImageQuant (Molecular Devices). IC50 values were calculated based on the signal with compound treatment compared to the vehicle (DMSO) control.

[4] = target: RET (Homo sapiens, UniProt P07949); conditions: cited from earlier work
Chain of RET (P07949 29-1114, species assumed): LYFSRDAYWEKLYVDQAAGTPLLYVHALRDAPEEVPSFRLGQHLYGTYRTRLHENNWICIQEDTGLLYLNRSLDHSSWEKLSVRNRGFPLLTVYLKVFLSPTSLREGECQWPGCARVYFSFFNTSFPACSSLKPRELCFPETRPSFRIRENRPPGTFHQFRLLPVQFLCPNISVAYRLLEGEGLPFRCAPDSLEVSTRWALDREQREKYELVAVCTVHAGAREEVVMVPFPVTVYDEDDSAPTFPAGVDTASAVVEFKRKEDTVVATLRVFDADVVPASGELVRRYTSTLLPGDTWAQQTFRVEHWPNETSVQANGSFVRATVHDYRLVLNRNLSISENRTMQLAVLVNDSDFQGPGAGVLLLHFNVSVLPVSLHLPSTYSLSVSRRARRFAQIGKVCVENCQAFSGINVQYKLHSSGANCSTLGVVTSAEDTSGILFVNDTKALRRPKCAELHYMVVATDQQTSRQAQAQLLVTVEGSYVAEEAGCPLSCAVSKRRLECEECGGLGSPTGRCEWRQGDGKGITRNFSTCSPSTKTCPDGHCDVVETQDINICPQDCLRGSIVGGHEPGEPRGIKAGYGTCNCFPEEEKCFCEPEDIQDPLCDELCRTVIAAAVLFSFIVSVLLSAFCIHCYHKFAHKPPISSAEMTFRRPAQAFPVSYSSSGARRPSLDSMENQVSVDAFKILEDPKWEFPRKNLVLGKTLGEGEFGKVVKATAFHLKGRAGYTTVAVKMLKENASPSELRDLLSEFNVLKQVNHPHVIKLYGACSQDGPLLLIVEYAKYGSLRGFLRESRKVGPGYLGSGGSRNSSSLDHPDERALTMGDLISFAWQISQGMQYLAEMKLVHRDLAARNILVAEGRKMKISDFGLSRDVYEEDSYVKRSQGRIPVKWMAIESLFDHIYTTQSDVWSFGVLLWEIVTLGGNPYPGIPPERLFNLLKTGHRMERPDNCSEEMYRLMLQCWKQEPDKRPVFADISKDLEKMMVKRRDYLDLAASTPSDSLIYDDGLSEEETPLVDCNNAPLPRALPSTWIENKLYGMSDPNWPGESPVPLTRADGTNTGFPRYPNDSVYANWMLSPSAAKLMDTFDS

T1 sequence (P08922 1945-2222 limits assumed): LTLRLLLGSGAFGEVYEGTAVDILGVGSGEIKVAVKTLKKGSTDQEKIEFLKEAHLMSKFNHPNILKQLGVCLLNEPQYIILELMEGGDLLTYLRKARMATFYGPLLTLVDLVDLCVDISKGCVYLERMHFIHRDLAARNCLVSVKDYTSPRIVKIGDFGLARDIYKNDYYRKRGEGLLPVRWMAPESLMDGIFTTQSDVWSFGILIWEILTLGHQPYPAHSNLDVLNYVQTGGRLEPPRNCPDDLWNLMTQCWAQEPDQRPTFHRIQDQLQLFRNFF

Row | IC50 ([1]; NCI-H2228, 48 hr incubation, read-out: 48 hr Prolif. IC50) | IC50 ([1]; NCI-H2228, 72 hr incubation, read-out: 72 hr Prolif. IC50) | IC50 ([2]; HCC78, HCC-78, 48 hr incubation, BrdU incorporation, read-out: 48 hr Prolif. IC50) | IC50 ([2]; HCC78, HCC-78, 72 hr incubation, BrdU incorporation, read-out: 72 hr Prolif. IC50) | Inhibition of SLC34A2-ROS1 mediated kinase activity (ROS1 phosphorylation) [3] | IC50 ([2]; HCC78, 48 h, read-out: 48 hr Prolif. IC50 (nM)) | IC50 ([2]; HCC78, 72 h, read-out: 72 hr Prolif. IC50 (nM)) | SMILES | inhibitor of RET [4]
1 | 1000 to 5000 nM | 5000 to 10000 nM | 10 to 100 nM | 10 to 100 nM | more potent than the comparator control | – | – | COc1cc2nccc(Oc3ccc(NC(=O)C4(C(=O)Nc5ccc(F)cc5)CC4)cc3)c2cc1OC [Compound 1, N-(4-{[6,7-bis(methyloxy)quinolin-4-yl]oxy}phenyl)-N′-(4-fluorophenyl)cyclopropane-1,1-dicarboxamide] | potent inhibitor
2 | – | – | – | – | – | 100 to 500 nM | 10 to 100 nM | C[C@@H](Oc1cc(-c2cnn(C3CCNCC3)c2)cnc1N)c1c(Cl)ccc(F)c1Cl [Crizotinib, 3-[(1R)-1-(2,6-dichloro-3-fluorophenyl)ethoxy]-5-(1-piperidin-4-ylpyrazol-4-yl)pyridin-2-amine, reference compound] | –
